The target of one assay is T1, human ROCK1 (Homo sapiens, UniProt Q13464).
T1 construct: His tag (N); host or cells: insect cells (Sf9)
Description: Measurement of Rho kinase inhibitory activity (ELISA of MBS phosphorylation). Type of assay: biochemical. The note with it: human ROCK1, MBS substrate, 100 μM ATP, 30° C. for 10 minutes. The protocol:
In this test, human ROCK1 was used as Rho kinase, MBS (myosin binding subunit, subunit constituting myosin phosphatase) was used as the substrate of Rho kinase, and an anti-phosphorylated MBS antibody was used for detection of phosphorylation. The activity for inhibiting Rho kinase was determined by measuring phosphorylation of MBS by the Rho kinase by ELISA in the presence of an appropriately diluted test compound. As the Rho kinase used, a recombinant protein (N-terminal His-tagged recombinant human ROCK1 residues (1Met-[…])) was used, which was produced in insect cells (Sf9) using a sequence (1-727), of which activity was confirmed in the paper of Ishizaki et al. (Ishizaki, T. et al., FEBS Letters, 404, pp 118-124, 1997), based on the sequence of human ROCK1 (p 160 ROCK) described in the report of Ishizaki et al. (Ishizaki, T. et al., EMBO J., 15, pp 1885-1893, 1996). Further, as the MBS protein and anti-phosphorylated MBS antibody, those prepared according to the method described in the paper of Ito et al. (Ito, K et al., J. Physiol., 546, pp 823-836, 2003) were used.
A solution of MBS (Asahi Kasei Pharma, lot No, 040814n7-10) diluted with PBS to an appropriate concentration was added to an ELISA plate (Maxisorp, Nunc), and left, stand overnight at 4° C., and then the wells were washed twice with a washing solution (WB, washing buffer, 0.1% Tween 20/PBS). To the wells were added 1% bovine serum albumin (Sigma)/PBS, and left for 1 to 3 hours, and then the wells were washed 5 times with WB to prepare a substrate-immobilized plate. Onto this plate, a reaction mixture (5 mM MgSO4/0.1 M NaCl/20 mM HEPES (pH 7.5)/100 μM ATP/5 mM DTT), a test compound, and appropriately diluted human ROCK1 (Asahi Kasei Pharma, lot No, 030126.120-22) were added, and then reacted at 30° C. for 10 minutes. Then, 0.2 M EDTA (pH 7.5) was added to terminate the reaction, and the wells were washed 5 times with WB. A rabbit anti-phosphorylated MBS antibody solution (Asahi Kasei Pharma, lot No, 122676431) diluted 10,000 times with WB containing 1% bovine serum albumin was added to the wells, and after the reaction for 1 hour, the wells were washed 5 times with WB. Goat anti-rabbit IgG-HRP (Zymed) diluted 1,000 times with WB containing 1% bovine serum albumin was added to the wells as the secondary detection antibody and the mixture was reacted for 1 hour, and then the wells were washed 5 times with WB. An OPD (o-phenylenediamine) solution (1 mg/ml OPD, Sigma), 5.1 g/l of citric acid monohydrate, and 18.4 g/l of Na2HPO4.12H2O were added to the wells to develop color, […] was added 5 minutes later to terminate the color development, and absorbance was measured at 490 nm.
The inhibition ratio was calculated as follows. Inhibition ratio(%)=[…]
Further, the inhibition ratio was calculated with changing the concentration of the test compound, and a compound concentration providing an inhibition ratio of 50% was obtained as IC50.
(An ELISA detects its analyte on a solid surface through an enzyme-linked reagent.)

Assay [1] relates to rabbit normal intraocular pressure. In words: Intraocular pressure reducing action. Type of assay: in vivo, Japanese white rabbit. The note with it: Oryctolagus cuniculus, topical; 3 mM aqueous solution, 50 μl to the left eye; max IOP reduction (2, 4, 6 hours) / value immediately before administration; read-out: intraocular pressure reducing degree. As for the experimental part: A Japanese white rabbit having a body weight of about 2 kg was placed in a positioner and naturalized for one week before the experiment. An opthalmologic local anesthesant (Benoxil) was administered to both eyes, and then intraocular pressure was measured by using a tonometer (Classic 30, Solan). A 3 mM aqueous solution of a test compound was administered in a volume of 50 μl to the left eye, and the right eye was not treated (control eye). The intraocular pressure values were measured for the left and right eyes immediately before, and 2, 4 and 6 hours after the administration of the aqueous solution of the test compound, and the difference of the measured values for the left and right eyes was considered an intraocular pressure reduction value of the test medicament at each measurement time. The largest difference of the values for the left and right eyes among the measured values at the measurement times (after 2, 4 and 6 hours) was considered the maximum intraocular pressure reduction value (max ? IOP) of each test medicament. The intraocular pressure reducing degree representing the intraocular pressure reducing action of each test medicament was calculated according to the following formula. Since rabbits show significant daily variation of intraocular pressure, daily variation is added when change of intraocular pressure is measured over time, and the intraocular pressure reducing action may be overestimated. Therefore, we used this calculation method of intraocular pressure reduction value in order to minimize the influence of the variation. Intraocular pressure reducing degree(%)=(max ? IOP/Intraocular pressure value immediately before administration)×100

T1 sequence (Q13464 1-727): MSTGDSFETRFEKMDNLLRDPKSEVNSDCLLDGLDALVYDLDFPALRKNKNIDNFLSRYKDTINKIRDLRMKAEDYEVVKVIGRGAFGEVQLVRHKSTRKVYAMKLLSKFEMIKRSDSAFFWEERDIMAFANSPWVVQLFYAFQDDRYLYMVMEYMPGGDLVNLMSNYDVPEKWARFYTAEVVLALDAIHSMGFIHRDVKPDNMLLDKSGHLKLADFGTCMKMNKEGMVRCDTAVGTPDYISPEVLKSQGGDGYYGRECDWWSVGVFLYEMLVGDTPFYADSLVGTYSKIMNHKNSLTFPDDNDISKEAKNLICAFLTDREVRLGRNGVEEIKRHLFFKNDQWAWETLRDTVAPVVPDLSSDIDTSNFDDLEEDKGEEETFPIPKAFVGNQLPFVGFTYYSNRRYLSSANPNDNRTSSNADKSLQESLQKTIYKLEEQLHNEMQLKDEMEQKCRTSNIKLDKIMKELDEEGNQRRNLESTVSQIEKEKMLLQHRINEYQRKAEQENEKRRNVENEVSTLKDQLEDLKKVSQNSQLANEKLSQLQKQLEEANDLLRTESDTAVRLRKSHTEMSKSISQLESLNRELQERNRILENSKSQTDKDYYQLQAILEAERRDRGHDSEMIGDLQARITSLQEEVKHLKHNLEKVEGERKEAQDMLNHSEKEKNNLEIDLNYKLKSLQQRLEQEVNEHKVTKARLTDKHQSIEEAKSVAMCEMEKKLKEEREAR

As usually defined, the IC50 is the concentration needed to halve the response being measured. Read a high IC50 as lower potency. `N[C@H]1CCN(S(=O)(=O)c2cccc3cncc(C(F)(F)F)c23)C1` [Example 47-1, (S)-3-Amino-1-(4-trifluoromethyl-5-isoquinolinesulfonyl)pyrrolidine] showed an IC50 against human ROCK1 of 1 to 3 µM.
Regarding `O=S(=O)(c1cccc2cncc(Cl)c12)N1CC[C@H](NCc2ccco2)C1` [Example 19-14], on human ROCK1, the IC50 was in the range of 1 to 3 µM.
On the same count and under the same terms, then `Cc1cncc2cccc(S(=O)(=O)N3CC[C@H](NCC#N)C3)c12` [Example 8-73], with 1 to 3 µM; and `O=S(=O)(c1cccc2cncc(Br)c12)N1CC[C@H](NCc2ccccc2)C1` [Example 1-6], with less than 1 µM; and `Cc1ccc(CN[C@H]2CCN(S(=O)(=O)c3cccc4cncc(C)c34)C2)s1` [Example 8-18], with 1 to 3 µM.
Same read-out and setting: then `NCC1CCN(S(=O)(=O)c2cccc3cncc(Cl)c23)C1` (centres unmarked) [Example 44, 3-(Aminomethyl)-1-(4-chloro-5-isoquinolinesulfonyl)pyrrolidine], with less than 1 µM.
The same measure, in the same setting: as for `Cc1cncc2cccc(S(=O)(=O)N3CC[C@H](NCc4ccc([N+](=O)[O-])cc4)C3)c12` [Example 8-9], the figure is 1 to 3 µM; as for `COc1ccc(CN[C@H]2CCN(S(=O)(=O)c3cccc4cncc(Br)c34)C2)cc1` [Example 1-7], less than 1 µM; as for `Cc1ccc(CN[C@H]2CCN(S(=O)(=O)c3cccc4cncc(C)c34)C2)o1` [Example 8-16], 1 to 3 µM.
Turning to `O=S(=O)(c1cccc2cncc(Cl)c12)N1CC[C@H](NCc2ccc3c(c2)OCO3)C1` [Example 19-8], the IC50 on human ROCK1 was less than 1 µM.
On the same count and under the same terms, as for `O=S(=O)(c1cccc2cncc(Cl)c12)N1CC[C@H](NCc2cccs2)C1` [Example 19-17], the figure is 1 to 3 µM; as for `C#Cc1cncc2cccc(S(=O)(=O)N3CC[C@H](NC4CCOCC4)C3)c12` [Example 10-31], 1 to 3 µM.
The same measure, in the same setting: as for `Cc1cncc2cccc(S(=O)(=O)N3CC[C@H](NCc4ccccc4)C3)c12` [Example 8-6], the figure is less than 1 µM.
Molecule `Cn1cccc1CN[C@H]1CCN(S(=O)(=O)c2cccc3cncc(Cl)c23)C1` [Example 19-21] came in with an IC50 on human ROCK1 of 1 to 3 µM.
In turn, `COc1ccc(CN[C@H]2CCN(S(=O)(=O)c3cccc4cncc(C)c34)C2)cc1` [Example 8-7] came in with an IC50 against human ROCK1 of less than 1 µM.
As to `NCC1CCN(S(=O)(=O)c2cccc3cncc(Cl)c23)CC1` [Example 52, 4-(Aminomethyl)-1-(4-chloro-5-isoquinolinesulfonyl)piperidine], the IC50 at human ROCK1 was less than 1 µM.
As for `Nc1ncc(Br)c2c(S(=O)(=O)N3CC[C@H](N)C3)cccc12` [Example 41-1, (S)-3-Amino-1-(1-amino-4-bromo-5-isoquinolinesulfonyl)pyrrolidine], the IC50 against human ROCK1 is less than 1 µM.
On to `CC(=O)NCCC(=O)NC1CCN(S(=O)(=O)c2cccc3cncc(Cl)c23)C1` (stereo in doubt) [Example 97, (R)-3-[(3-Acetylamino)propionyl]amino-1-(4-chloro-5-isoquinolinesulfonyl)pyrrolidine], for which, in assay [1], the inhibition in vivo at 3000 µM lay within 10 to 20%.
In the case of `O=C(CN1CCOCC1)N[C@H]1CCN(S(=O)(=O)c2cccc3cncc(Cl)c23)C1` [Example 88, (S)-3-[2-(Morpholin-1-yl)acetyl]amino-1-(4-chloro-5-isoquinolinesulfonyl)pyrrolidine], the inhibition in vivo at 3000 µM in assay [1] was in the range of 10 to 20%.
Turning to `O=C(COc1ccc2nncn2n1)N[C@H]1CCN(S(=O)(=O)c2cccc3cncc(Cl)c23)C1` [Example 107, (S)-3-[2-([1,2,4]Triazolo[4,3-b]pyridazin-6-yloxy)acetyl]amino-1-(4-chloro-5-isoquinolinesulfonyl)pyrrolidine], the inhibition in vivo at 3000 µM in assay [1] is 10 to 20%.
The same measure, in the same setting: as for `CN(C)CC(=O)N(C)[C@H]1CCN(S(=O)(=O)c2cccc3cncc(F)c23)C1` [Example 118, (S)-3-[N-(2-Dimethylamino)acetyl-N-methyl]amino-1-(4-fluoro-5-isoquinolinesulfonyl)pyrrolidine], the figure is 5 to 10%; as for `COCC(=O)N[C@H]1CCN(S(=O)(=O)c2cccc3cncc(F)c23)C1` [Example 115, (S)-3-(2-Methoxyacetyl)amino-1-(4-fluoro-5-isoquinolinesulfonyl)pyrrolidine], 5 to 10%; as for `O=S(=O)(c1cccc2cncc(Cl)c12)N1CC[C@H](NC2CCOC2)C1` (stereo partly drawn) [Example 59-1, (3S)-3-(3-Tetrahydrofuranyl)amino-1-(4-chloro-5-isoquinolinesulfonyl)pyrrolidine], 10 to 20%.
On the same count and under the same terms, then `N#Cc1cncc2cccc(S(=O)(=O)N3CC[C@H](N)C3)c12` [Example 13-1, (S)-3-Amino-1-(4-cyano-5-isoquinolinesulfonyl)pyrrolidine], with 5 to 10%.
The same measure, in the same setting: then `CN(C)CCOCC(=O)N[C@H]1CCN(S(=O)(=O)c2cccc3cncc(Cl)c23)C1` [Example 111, (S)-3-[2-[2-(Dimethylamino)ethoxy]acetyl]amino-1-(4-chloro-5-isoquinolinesulfonyl)pyrrolidine], with 5 to 10%; and `NC(C(=O)N[C@H]1CCN(S(=O)(=O)c2cccc3cncc(Cl)c23)C1)c1ccccc1` (stereo partly drawn) [Example 106, (S)-3-[(2-Amino-2-phenyl)acetyl]amino-1-(4-chloro-5-isoquinolinesulfonyl)pyrrolidine], with no less than 20%.
As for `O=C(CNC(=O)c1ccccc1)N[C@H]1CCN(S(=O)(=O)c2cccc3cncc(Cl)c23)C1` [Example 94, (S)-3-[(2-Benzoylamino)acetyl]amino-1-(4-chloro-5-isoquinolinesulfonyl)pyrrolidine], the inhibition in vivo at 3000 µM in assay [1] was in the range of 10 to 20%.
Still for that read-out and setting: as for `COCCOCCOCC(=O)N[C@H]1CCN(S(=O)(=O)c2cccc3cncc(Cl)c23)C1` [Example 99, (S)-3-[2-[2-(2-Methoxyethoxy)ethoxy]acetyl]amino-1-(4-chloro-5-isoquinolinesulfonyl)pyrrolidine], the figure is 10 to 20%; as for `O=C(Cn1ccnc1)N[C@H]1CCN(S(=O)(=O)c2cccc3cncc(Cl)c23)C1` [Example 86, (S)-3-[2-(1H-Imidazol-1-yl)acetyl]amino-1-(4-chloro-5-isoquinolinesulfonyl)pyrrolidine], 10 to 20%.
On the same count and under the same terms, as for `O=C(Cn1cncn1)N[C@H]1CCN(S(=O)(=O)c2cccc3cncc(Cl)c23)C1` [Example 84, (S)-3-[2-(1H-1,2,4-Triazol-1-yl)acetyl]amino-1-(4-chloro-5-isoquinolinesulfonyl)pyrrolidine], the figure is 10 to 20%.
Take `COCC(=O)N[C@H]1CCN(S(=O)(=O)c2cccc3cncc(C)c23)C1` [Example 70, (S)-3-(2-Methoxyacetyl)amino-1-(4-methyl-5-isoquinolinesulfonyl)pyrrolidine]: the inhibition in vivo at 3000 µM in assay [1] is no less than 20%.
Still for that read-out and setting: then `O=C(CNC(=O)c1cccnc1)N[C@H]1CCN(S(=O)(=O)c2cccc3cncc(Cl)c23)C1` [Example 95, (S)-3-[(2-Nicotinamino)acetyl]amino-1-(4-chloro-5-isoquinolinesulfonyl)pyrrolidine], with 10 to 20%.
